Conditions: polymer system of polydimethylsiloxane vinyl terminated at various viscosity and a range of platinum-mono, di, tri and/or tetramethyldisiloxane complex
Excerpt: The composition for the example may be as follow: polymer part: polydimethylsiloxane, vinyldimethyl terminated, any viscosity; and/or polydimethylsiloxane, vinylmonomethyl terminated, any viscosity. The cross-linker part: polydimethylsiloxane, any viscosity; and or polymonomethylsiloxane, any viscosity. Platinum catalyst part and/or cross-linker part: platinum; and/or platinum-divinyltetramethyldisiloxane complex in xylene, 2-3% Pt; and/or platinum-divinyltetramethyldisiloxane complex in vinyl terminated polydimethylsiloxane, 2-3% Pt; and/or platinum-divinyltetramethyldisiloxane complex in vinyl terminated polydimethylsiloxane, ˜1% Pt; platinum-Cyclovinylmethylsiloxane complex, 2-3% Pt in cyclic vinyl methyl siloxane.
These components may be combined in different ratios to make the polymer. […] The amount of vinyl siloxane cross-linker may determine the rate of the drug release and diffusivity of the polymer to the drug.

CC(=O)O[C@H]1C(=O)[C@@]2(C)[C@H]([C@H](OC(=O)c3ccccc3)[C@]3(O)C[C@H](OC(=O)[C@H](O)[C@@H](NC(=O)c4ccccc4)c4ccccc4)C(C)=C1C3(C)C)[C@]1(OC(C)=O)CO[C@@H]1C[C@@H]2O [paclitaxel]
release profile: acceptable
